Results from ChEMBL document CHEMBL2439974, “Design and Synthesis of 4-(4-Benzoylaminophenoxy)phenol Derivatives As Androgen Receptor Antagonists” (ACS Med Chem Lett, 2013).
Calls of active or inactive are those of the source. The calls are words filed in the database; no cut-off is given here.

What was measured:
[1] = biological target: Androgen receptor (Mus musculus) (UniProt P19091); test: Antagonist activity at androgen receptor in mouse SC3 cells assessed as inhibition of DHT-induced cell growth at 10 uM after 3 days by CCK-8/WST-8 assay relative to control; assay type: cell-based; conditions: SC-3
[2] = biological target: T1, Androgen receptor (Homo sapiens) (UniProt P10275); test: Antagonist activity at androgen receptor in human MDA-kb2 cells assessed as inhibition of DHT-induced luciferase activity at 10 uM after 24 hrs by chemiluminescence assay relative to control; assay type: cell-based
T1 sequence (whole entry): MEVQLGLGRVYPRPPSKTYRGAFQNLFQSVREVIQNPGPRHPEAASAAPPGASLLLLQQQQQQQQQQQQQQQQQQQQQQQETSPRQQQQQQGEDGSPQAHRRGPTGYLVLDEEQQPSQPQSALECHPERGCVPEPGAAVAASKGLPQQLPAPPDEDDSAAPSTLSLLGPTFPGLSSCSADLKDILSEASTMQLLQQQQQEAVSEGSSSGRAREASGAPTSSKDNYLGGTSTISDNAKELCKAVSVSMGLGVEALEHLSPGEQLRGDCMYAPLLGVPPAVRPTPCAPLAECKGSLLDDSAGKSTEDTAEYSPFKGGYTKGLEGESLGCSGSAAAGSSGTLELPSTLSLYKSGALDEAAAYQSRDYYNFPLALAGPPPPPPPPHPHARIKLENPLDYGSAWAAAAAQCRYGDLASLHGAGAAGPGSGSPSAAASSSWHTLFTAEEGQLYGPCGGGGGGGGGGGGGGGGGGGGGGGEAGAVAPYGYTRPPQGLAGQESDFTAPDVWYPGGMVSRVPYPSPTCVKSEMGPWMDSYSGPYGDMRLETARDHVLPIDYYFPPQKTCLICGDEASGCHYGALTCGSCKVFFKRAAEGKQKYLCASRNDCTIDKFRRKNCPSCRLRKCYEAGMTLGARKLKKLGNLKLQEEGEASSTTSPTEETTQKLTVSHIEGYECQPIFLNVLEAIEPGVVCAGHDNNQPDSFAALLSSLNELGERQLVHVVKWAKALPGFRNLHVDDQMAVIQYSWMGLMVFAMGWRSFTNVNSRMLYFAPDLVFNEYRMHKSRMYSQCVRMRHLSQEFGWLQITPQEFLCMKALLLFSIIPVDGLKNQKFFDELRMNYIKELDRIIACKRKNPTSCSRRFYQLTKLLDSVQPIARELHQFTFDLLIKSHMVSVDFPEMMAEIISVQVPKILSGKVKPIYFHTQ

PC-3 = test: Cytotoxicity against human PC3 cells assessed as growth inhibition after 3 days by WST-8 assay; assay type: functional, cell-based; conditions: PC-3, 72 h
Androgen receptor = biological target: T2, Androgen receptor (Homo sapiens, UniProt P10275); test: Displacement of [3H]-DHT from human GST-tagged androgen receptor LBD (627 to 919) expressed in Escherichia coli HB-101 after 15 hrs by liquid scintillation counting analysis
T2 sequence (P10275 whole entry): T1 sequence (whole entry)

Androgen receptor (Mus musculus), sequence (P19091 whole entry): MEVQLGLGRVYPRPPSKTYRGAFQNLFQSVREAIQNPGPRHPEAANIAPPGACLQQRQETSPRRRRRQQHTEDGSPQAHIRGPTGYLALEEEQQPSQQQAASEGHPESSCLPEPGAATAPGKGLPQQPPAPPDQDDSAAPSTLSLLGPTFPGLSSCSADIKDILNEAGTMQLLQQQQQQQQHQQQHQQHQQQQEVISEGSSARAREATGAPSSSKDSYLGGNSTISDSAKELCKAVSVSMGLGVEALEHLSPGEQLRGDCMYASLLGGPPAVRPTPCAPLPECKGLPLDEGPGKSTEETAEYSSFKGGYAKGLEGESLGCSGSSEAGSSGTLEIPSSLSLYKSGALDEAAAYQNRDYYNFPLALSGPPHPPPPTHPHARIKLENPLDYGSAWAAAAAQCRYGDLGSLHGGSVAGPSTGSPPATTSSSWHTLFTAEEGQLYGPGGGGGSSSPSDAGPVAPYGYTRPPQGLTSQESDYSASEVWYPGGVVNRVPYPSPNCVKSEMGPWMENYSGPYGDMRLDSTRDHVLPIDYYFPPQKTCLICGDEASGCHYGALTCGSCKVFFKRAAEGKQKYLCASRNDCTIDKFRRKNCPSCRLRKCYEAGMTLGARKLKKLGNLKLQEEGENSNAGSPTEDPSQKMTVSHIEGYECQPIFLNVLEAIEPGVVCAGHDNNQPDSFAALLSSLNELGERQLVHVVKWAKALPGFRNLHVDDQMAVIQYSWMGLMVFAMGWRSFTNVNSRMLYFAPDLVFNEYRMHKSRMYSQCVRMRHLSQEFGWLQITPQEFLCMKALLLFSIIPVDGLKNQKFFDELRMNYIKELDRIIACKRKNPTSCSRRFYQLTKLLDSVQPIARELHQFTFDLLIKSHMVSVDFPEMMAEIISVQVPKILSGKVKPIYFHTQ

Row | Compound | growth inhibition (GI) [1] | inhibition [2] | IC50 (PC-3) [µM] | IC50 (Androgen receptor) [µM]
1 | O=C(Nc1ccc(Oc2ccc(O)cc2)cc1)c1cccc(O)c1 | inactive | – | – | –
2 | O=C(Nc1ccc(Oc2ccccc2)cc1)c1ccccc1 | 20% | – | – | –
3 | CC(C)(O)C(=O)Nc1ccc([N+](=O)[O-])c(C(F)(F)F)c1 | – | 60% | – | –
4 | COc1cccc(C(=O)Nc2ccc(Oc3ccc(O)cc3)c(C)c2)c1 | – | 66% | 5.7 | 9.2
5 | COc1cccc(C(=O)Nc2ccc(Oc3ccc(O)cc3)nc2)c1 | – | inactive | – | > 10
6 | CC(O)(CS(=O)(=O)c1ccc(F)cc1)C(=O)Nc1ccc(C#N)c(C(F)(F)F)c1 (stereo not drawn) [BICALUTAMIDE] | – | – | > 10 | –
7 | COc1cccc(C(=O)Nc2cnc(Oc3ccc(O)cc3)nc2)c1 | – | inactive | – | > 10
8 | O=C(Nc1ccc(Oc2ccc(O)cc2)cc1)c1ccc(O)cc1 | inactive | – | – | –
9 | COc1cccc(C(=O)Nc2ccc(Oc3ccc(O)cc3)cc2)c1 | – | 6% | 5.6 | 20
10 | COc1cccc(C(=O)Nc2cc(C)c(Oc3ccc(O)cc3)c(C)c2)c1 | – | 69% | > 10 | 5.4
